Values of other authors as cited in US20080287418A1, “Extended Release Compositions and Methods for Their Manufacture” (ASTRAZENECA AB, priority 2007, published 2008).

Solubility in acid (acid): soluble in acid | Solubility in water (water): slightly soluble in water
SMILES: OCCOCCN1CCN(C2=Nc3ccccc3Sc3ccccc32)CC1 [quetiapine, 11-[4-[2-(2-hydroxyethoxy)ethyl]-1-piperazinyl]dibenzo[b,f][1,4]thiazepine]
